The values that follow come from patent US9062308B2, “Compositions and methods for treatment of tamoxifen resistant breast cancer” (The Johns Hopkins University, priority 2011, dated 2015).

Assay [1] has as its system EGFR, p44/42 MAPK and ERα phosphorylation. The assay is described as follows: EGFR signaling in estrogen deprived MCF-7-B7 cells treated with TAM. The assay is classed as cell-based. The text has this: These observations indicate that under the treatment conditions, nongenomic ERα action occurred to activate EGFR signaling.
The subject of assay [2] is MCF-7-B7 cells. The experiment in a line: Soft agar colony formation by MCF-7-B7 cells. The assay is classed as cell-based. The protocol: (§1) FIG. 3 depicts evidence that HOXB7 promotes TAM resistance. (3A) Immunoblot analysis of Phospho-EGFR, EGFR, P-MAPK, MAPK and HOXB7 expression levels in MCF-7-Vec and MCF-7-HOXB7 cells. (3B) Tumor growth curve of MCF-7-HOXB7 cells implanted s.c. in athymic Swiss female mice and treated with either vehicle or TAM (83.3 μg/day), in the absence of an exogenous estrogen supplement. […] (3D) Semi quantitative RT-PCR analysis of mRNA expression levels of TGFα, HB-EGF and Amphiregulin in HOXB7 expressing MCF-7 cells and their vector controls (left); Amphiregulin or TGFα mRNA expression in MCF-7-vec and MCF-7-B7 cells treated with either scrambled sequence siRNA or ERα-specific siRNA (right) (3E) Diagram representing the HOXB7 binding sites in EGFR promoter region. MCF-7 cells were transfected with pcDNA3-Flag-HOXB7 and Vector plasmid, ChIP was performed by IP with either anti-Flag M2 antibody or control IgG. (3F) Luciferase activity of deletion/truncation constructs of the EGFR promoter, with (solid box) and without (slashed box) transfected HOXB7 plasmid, to map minimal region necessary for activation by HOXB7.

For the next assay, the system named is MCF-7-Vec cells. The experiment in a line: TAM treatment in culture, apoptosis and cell viability, MCF-7-Vec cells. The assay is classed as cell-based. As to conditions: MCF-7-Vec cells in culture.
In assay [3] the test system is EGFR, MAPK, ERα and HOXB7. The experiment in a line: Immunoblot analysis of MCF-7 cells treated long-term with TAM. The assay is classed as cell-based. The procedure:
(§2) (2A) Immunoblot analysis of Phospho-EGFR (Y1068), EGFR, Phospho-MAPK, MAPK, Phospho-ERα (S118), ERα, and HOXB7 expression in MCF-7 cells treated long-term with either vehicle or 0.1 μM TAM (TMR1) or 1 μM TAM (TMR2). (2B) Immunoblot analysis of EGFR, Phospho-MAPK, MAPK and HOXB7 expression in MCF-7-TMR cells and BT474 transfected with either scrambled sequence siRNA or HOXB7-specific siRNA. (2C) Soft agar colony formation in BT474 cells and MCF-7-TMR cells transfected with either scrambled sequence siRNA or HOXB7-specific siRNA treated with Vehicle or 1 μM TAM.
(§3) HOXB7 in the acquisition of anti-estrogen resistance. Because of the observation of a striking similarity in phenotype between prolonged endocrine therapy primed TAM-resistant models and our HOXB7 overexpressing cells, the hypothesis that HOXB7 is a mediator of anti-estrogen resistance was investigated. MCF-7 cell lines were derived, and exposed to either vehicle or TAM (0.1 μM or 1 μM) for over 12 months (designated MCF-7-TMR1 or MCF-7-TMR2 respectively).
Background: A western blot detects proteins with antibodies after separation by electrophoresis.

The next assay has as its system MCF-7-TMR cells. The experiment in a line: Soft agar colony formation in MCF-7-TMR cells. The assay is classed as cell-based. The procedure: as §2, §3
Assay [4] deals with MCF-7-B7 cells. The assay is described as follows: TAM treatment in culture, apoptosis and cell viability, MCF-7-B7 cells. The assay is classed as cell-based. As to conditions: MCF-7-B7 cells in culture.
For a further assay, the system named is MCF-7-B7 xenografts. The assay is described as follows: Xenograft analysis, tumor growth of MCF-7-B7 cells implanted s.c. in athymic mice. The assay is classed as in vivo. As to conditions: MCF-7-B7 xenografts in immunodeficient mice; TAM 83.3 μg/day; no exogenous estrogen supplement. The protocol:
as §1
Xenograft Analysis. […] At necropsy, primary tumors, liver, lung and spleen were evaluated for the presence of macroscopic tumors. […]

The test system of another assay is HOXB7 mRNA. The assay is described as follows: Real time quantitative PCR analysis of HOXB7 mRNA levels. The assay is classed as cell-based. The protocol:
(4A) Real time quantitative PCR analysis of HOXB7 mRNA levels in MCF-7 cells. Cells were incubated in estrogen deprived condition for 72 hours [DMEM phenol red-free medium containing 5% Dextran charcoal stripped serum (DCC-FBS)]; the cells were then treated with 0.1-100 nM estrogen (E2); […]; Inset: Semi-quantitative RT-PCR analysis of HOXB7 mRNA following 1 uM TAM treatment for 24 hour. (4B) Real time quantitative PCR analysis of HOXB7. mRNA levels in MDA-MB-231 and MDA-MB-453 cells were transiently transfected with ERα expression plasmid and vector control for 48 hours. ERIN, a ERα overexpressed cell line, was used with MCF10A as a control. (4C) Immunoblot analysis of HOXB7 and ERα expression levels in transient transfectants of MDA-MB-231-ERα.
Real-time PCR of HOXB7 expression. HOXB7 gene expression was quantitated by Taqman real-time quantitative PCR in triplicate in 96-well plate using an ABI 7900HT (Applied Biosystems) using cDNA derived from our previously published cohort of tumor samples (Cancer research 62(3):827-834). The sequences of the HOXB7 PCR primer pairs and fluorogenic MGB probe (5′ to 3′), respectively, are: AAAACCTACCACTCGCGTGTTC (SEQ ID NO: 5), GGA CGG GAA GCA AGA AGC A (SEQ ID NO: 6), and VIC-CAA GCG CCT GGC TG (SEQ ID NO: 7).

The test system of a further assay is LTED cells. As to conditions: MCF-7-LTED cells; cited from earlier work.
The test system of assay [5] is EGFR, p44/42 MAPK, ARG and TGFα. The assay is described as follows: EGFR activity and EGFR ligand levels in MCF-7-B7 cells after ER downregulation. The assay is classed as cell-based. The procedure:
as §1

Assay [6] deals with ERα-positive breast cancer. The following applies: patients with acquired resistance who progress on TAM; cited from earlier work.
Another assay has as its system BT474 cells. The experiment in a line: Soft agar colony formation in BT474 cells. The assay is classed as cell-based. As to conditions: 1 μM gefitinib and 1 μM TAM. The protocol: as §2
The subject of another assay is TGFα and HB-EGF. The assay is described as follows: TGFα and HB-EGF expression in MCF-10A-B7 cells under EGFR inhibition. The assay is classed as cell-based.

As for `CC/C(=C(\c1ccccc1)c1ccc(OCCN(C)C)cc1)c1ccccc1` [TAM, tamoxifen], in assay [1] (MCF-7-B7 cells in estrogen deprived conditions, TAM for 24 hours, vs MCF-7-Vec cells), the “active EGFR, p44/42 MAPK activity and ERα phosphorylation” value is “significantly higher levels of active forms of EGFR, increased p44/42 MAPK activity and ERα phosphorylation”. Also, the “phosphorylation of EGFR, p44 MAPK and ER” value in [1] (estrogen deprived MCF-7-B7 cells, 1 μM TAM for 0-30 minutes, data not shown) is “elevated phosphorylation of EGFR, activation of p44 MAPK, and ER phosphorylation at Serine 118”. The “colony formation in soft agar in the presence of tamoxifen” value with MCF-7-B7 cells [2] (TAM 1 μM) was “at frequencies similar to vehicle treated cells”. In the assay on MCF-7-Vec cells, the “apoptosis and cell viability” value was “increased apoptosis and decreased cell viability”. The HOXB7 expression result in assay [3] (MCF-7-TMR cells (long-term TAM)) is given as “upregulated”. For the same compound, in [3] (MCF-7 cells, 0.1 μM TAM, 0, 2, 4, 6 months, data not shown), the “levels of HOXB7 expression over time” value is “progressively increasing levels of HOXB7 expression”. Moreover, the “expression of EGFR, activated MAPK and ERα, total ERα” value in [3] (MCF-7 cells, TAM 0.1 μM or 1 μM for over 12 months) was “elevated expression of EGFR and activated MAPK and ERα, but no significant change of total ERα”. Further, the “resistance to TAM treatment by colony formation assay” value with MCF-7-TMR cells (MCF-7-TMR1 cells (0.1 μM TAM for over 12 months), data not shown) is reported as “significant resistance to TAM treatment”. Besides, the “sensitivity to TAM treatment (apoptosis, cell viability)” value in the assay with MCF-7-B7 cells [4] is on record as “minimally sensitive”. Also, in the assay on MCF-7-B7 xenografts, the “tumor growth response to TAM” value is on record as “failed to respond to the inhibitory effects of TAM”. In the assay with HOXB7 mRNA (MCF-7 and T47D cells, tamoxifen in medium containing 10% FBS), the “HOXB7 mRNA levels” value is listed as “increased”. For the same compound, the “downregulation of HOXB7 expression by estradiol” value in the assay with HOXB7 mRNA (tamoxifen added to estradiol) is listed as “abrogated”. Besides, the “sensitivity of LTED cells” value with LTED cells is “refractory”.

In the case of `C[C@]12CC[C@@H]3c4ccc(O)cc4C[C@@H](CCCCCCCCC[S+]([O-])CCCC(F)(F)C(F)(F)F)[C@H]3[C@@H]1CC[C@@H]2O` (stereo partly shown) [fulvestrant], the “EGFR and p44/42 MAPK activity” value in assay [5] (HOXB7 overexpression (MCF-7-B7 cells)) is “modestly reduced increases in EGFR and p44/42 MAPK activity”. Moreover, in assay [5] (MCF-7-B7 cells), the “levels of the autocrine/paracrine EGFR ligands (ARG and TGFα)” value is on record as “significant reduction”. The patients who respond in assay [6] was 20%. Moreover, the “sensitivity of LTED cells” value with LTED cells is recorded as “sensitive”.

Take `COc1cc2ncnc(Nc3ccc(F)c(Cl)c3)c2cc1OCCCN1CCOCC1` [gefitinib]: the “effect on TAM action, soft agar colony formation” value with BT474 cells was “dramatically converted TAM to a potent antagonist”; in the assay on MCF-7-TMR cells (MCF-7-TMR cells, 1 μM gefitinib and 1 μM TAM) it was “dramatically converted TAM to a potent antagonist”. Besides, the “re-sensitization to TAM treatment, soft agar colony formation” value in the assay on MCF-7-B7 cells [2] (1 μM gefitinib with TAM 1 μM) is given as “significantly re-sensitized them to TAM treatment”.

Turning to `COc1cc2ncnc(Nc3cccc(Cl)c3)c2cc1OC` [AG1478], in the assay on TGFα and HB-EGF, the “elevated expression of TGFα and HB-EGF” value was “significantly abrogated”.

In the case of `C[C@]12CC[C@@H]3c4ccc(O)cc4CC[C@H]3[C@@H]1CC[C@@H]2O` [estradiol, 17β-estradiol], the HOXB7 expression result in the assay on HOXB7 mRNA (estradiol stimulation in estrogen-deprived growth conditions (5% charcoal stripped serum)) is reported as “significantly reduced”.
